Results taken from patent US10745380B2, “Pyridine derivatives and their use in the treatment of cancer and hemoglobinopathies” (CTXT PTY LTD, priority 2016, dated 2020).
Structures can show the parent of a compound that is named as a salt.

Tests used:
[1] = target: Full-length PRMT5 enzyme co-expressed with His6-MEP50 (Homo sapiens (Human), UniProt O14744); experiment: PRMT5 Biochemical Assay; settings: Transcreener EPIGEN methyltransferase assay, histone H4 derived peptide substrate, 4 hours at 37 degree Celsius
Protocol: Assays PRMT5 Biochemical Assay
Compounds of the invention may be tested for in vitro activity in the following assay: A histone H4 derived peptide is used as substrate (amino acid sequence: […]NH2). Full-length PRMT5 enzyme (NCBI Reference sequence NP_006100.2) was co-expressed with His6-MEP50 in insect cells and purified via Nickel immobilized metal affinity and gel filtration chromatography (“the enzyme”).
The 6 μL reactions are run in Greiner brand black 384-well low volume assay plates. All reactions contained assay buffer (phosphate buffered saline, 0.01% (v/v) Tween-20, 0.01% (w/v) albumin from chicken egg white, 1 mM Dithiothreitol, 1 μM peptide substrate, 1 μM S-Adenosyl methionine, and 15 ng/reaction enzyme, with the enzyme being omitted from negative control reactions. Compounds were added in a volume of 100 nL from dilution series prepared in DMSO, positive and negative control reactions receiving the same volume DMSO without compound. The plates were sealed with adhesive seals and incubated for 4 hours at 37 degree Celsius. Reaction progress was measured using the Transcreener™ EPIGEN methyltransferase assay (BellBrook Labs, Madison, Wis.) as recommended by the manufacturer. To each reaction 2 μL detection mix were added, containing coupling enzymes, fluorescence polarisation tracer, and AMP antibody. […]

[2] = tested on: TE11 cell line; experiment: PRMT5 Biomarker Assay (symmetrical dimethylation of arginine, Histone H4 Arginine 3); format: cell-based; settings: TE11 cells, 72 hours incubation, Di-Methyl Histone H4 Arginine 3 level
Protocol: Compounds of the invention may be tested for potency to inhibit symmetrical dimethylation of arginine in the following assay:
The cell line TE11 was seeded at a density of 6,000 cells per well in 96 well optical quality tissue culture plates in DME medium and 10% foetal bovine serum, and allowed to adhere for 5 hours under standard culture conditions (37 degree Celsius, 5% CO2). Compound dilutions prepared in DMSO were added to the medium, with negative control wells reserved for treatment with DMSO only and maximum inhibition controls receiving a potent PRMT5 inhibitor compound at 1 μM concentration. After incubation for 72 hours, the cells were fixed with 3.7% formaldehyde in PBS for 30 minutes at room temperature, washed with phosphate buffer saline and blocked with Odyssey blocking buffer (LI-COR, Lincoln, Nebr.). Rabbit anti-Di-Methyl Histone H4 Arginine 3 specific antibody (Epigentek) in Odyssey blocking buffer was added and incubated for 14 hours at 4 degree Celsius. […] Plates were washed and read on a PerkinElmer Envision 2103 in fluorescence intensity scanning mode (24 scans across the well area). […] Using a Columbus image analysis pipeline, individual nuclei were located by Hoechst 33342 stain and the methylation level was calculated from the Alexa647-related intensity in the same area. […]

Sequence of Full-length PRMT5 enzyme co-expressed with His6-MEP50 (O14744 whole entry): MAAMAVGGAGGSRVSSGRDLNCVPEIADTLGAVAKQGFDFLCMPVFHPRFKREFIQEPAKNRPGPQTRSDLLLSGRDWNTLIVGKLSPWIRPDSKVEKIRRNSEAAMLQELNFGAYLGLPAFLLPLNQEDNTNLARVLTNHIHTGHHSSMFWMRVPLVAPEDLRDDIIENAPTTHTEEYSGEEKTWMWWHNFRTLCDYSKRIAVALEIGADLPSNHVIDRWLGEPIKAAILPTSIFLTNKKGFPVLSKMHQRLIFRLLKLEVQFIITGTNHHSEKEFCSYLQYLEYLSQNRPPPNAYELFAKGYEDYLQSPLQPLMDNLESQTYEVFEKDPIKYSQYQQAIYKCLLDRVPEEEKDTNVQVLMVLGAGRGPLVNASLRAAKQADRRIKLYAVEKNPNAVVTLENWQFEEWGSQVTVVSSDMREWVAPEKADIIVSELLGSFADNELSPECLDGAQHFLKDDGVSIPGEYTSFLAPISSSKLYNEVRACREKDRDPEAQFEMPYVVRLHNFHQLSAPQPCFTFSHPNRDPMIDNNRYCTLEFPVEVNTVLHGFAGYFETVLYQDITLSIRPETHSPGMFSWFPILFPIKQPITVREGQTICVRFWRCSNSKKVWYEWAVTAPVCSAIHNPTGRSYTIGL
Sequence of Full-length PRMT5 enzyme co-expressed with His6-MEP50 (Q9BQA1 whole entry partner): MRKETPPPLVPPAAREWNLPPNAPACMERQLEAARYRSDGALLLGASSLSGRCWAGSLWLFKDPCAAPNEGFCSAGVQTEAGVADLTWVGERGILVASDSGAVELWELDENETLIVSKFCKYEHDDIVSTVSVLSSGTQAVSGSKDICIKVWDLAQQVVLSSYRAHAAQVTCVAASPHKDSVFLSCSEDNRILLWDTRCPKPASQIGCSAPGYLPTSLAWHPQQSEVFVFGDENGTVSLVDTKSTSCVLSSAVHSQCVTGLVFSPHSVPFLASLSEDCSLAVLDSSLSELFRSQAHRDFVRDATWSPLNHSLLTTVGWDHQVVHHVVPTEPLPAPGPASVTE

Row | SMILES | IC50 [1] | IC50 [2] | IC50 ([2]; Homo sapiens, TE-11)
1 | CCOc1nc(OCc2ccccc2)ccc1C(=O)NC[C@@H](O)CNC1Cc2ccccc2C1 [Compound 1, (S)-6-(Benzyloxy)-N-(3-((2,3-dihydro-1H-inden-2-yl)amino)-2-hydroxypropyl)-2-ethoxy nicotin amide hydrochloride] | 86 nM | 79 nM | 
2 | CC(=O)N1CCC(Nc2nccc(C(=O)NC[C@@H](O)CNC3Cc4ccccc4C3)c2Cl)CC1 [Compound 2] | 105 nM |  | 35 nM
